Experimental data taken from the NIST ThermoML archive (doi:10.1016/j.jct.2010.10.021).
Several values for one entry are separate records, joined by “and”; a condition that tells them apart may be missing. Equal values may be shown once. ± gives the expanded uncertainty stated by the source.

Assay: xn = mol fraction of the nth substance listed
Conditions: 100 kPa, Liquid, Frequency=5 MHz, Single path-length method, x1 = 0.7

| Structure (SMILES) | speed of sound (1243 K) [m/s] | speed of sound (1254 K) [m/s] | speed of sound (1260 K) [m/s] | speed of sound (1261 K) | speed of sound (1271 K) [m/s] | speed of sound (1278 K) [m/s] |
| --- | --- | --- | --- | --- | --- | --- |
| [F-].[Li+] [lithium fluoride] + [Br-].[K+] | 1408 ± 28 | 1394 ± 28 | 1385 ± 28 | – | – | – |
| [F-].[Li+] [lithium fluoride] + [Cl-].[Cs+] | – | – | – | 1236 ± 25 m/s and 1235 ± 25 m/s | 1226 ± 25 | 1220 ± 24 |
